Test results from PubChem BioAssay (NCI).
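Step 1: Grow cells in 96-well plates. Step 2: Expose to compound for 48 hours at 5 concentrations. Step 3: Interpolate endpoints linearly; if unreached, use highest concentration. GI50 = concentration required for 50% inhibition of growth. The concentration for full growth arrest is given as TGI.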

Tests used:
Test in all cases: inhibition of tumour cell growth, NCI panel, 48 h
ACHN renal = system: ACHN renal
COLO 205 colon = system: COLO 205 colon
HCT-116 colon = system: HCT-116 colon
HCT-15 colon = system: HCT-15 colon
IGROV1 ovarian = system: IGROV1 ovarian
NCI-H23 lung = system: NCI-H23 lung
U251 CNS = system: U251 CNS
UACC-62 melanoma = system: UACC-62 melanoma
UO-31 renal = system: UO-31 renal
T-47D breast = system: T-47D breast

Compound	TGI (ACHN renal) [µM]	TGI (COLO 205 colon) [µM]	TGI (HCT-116 colon) [µM]	TGI (HCT-15 colon) [µM]	TGI (IGROV1 ovarian) [µM]	TGI (NCI-H23 lung) [µM]	TGI (U251 CNS) [µM]	TGI (UACC-62 melanoma) [µM]	TGI (UO-31 renal) [µM]	GI50 (ACHN renal) [µM]	GI50 (HCT-15 colon) [µM]	GI50 (IGROV1 ovarian) [µM]	GI50 (NCI-H23 lung) [µM]	GI50 (T-47D breast) [µM]	TGI (T-47D breast) [µM]	GI50 (U251 CNS) [µM]	GI50 (UACC-62 melanoma) [µM]	GI50 (UO-31 renal) [µM]	GI50 (HCT-116 colon) [µM]	GI50 (COLO 205 colon) [µM]
CC1(Cl)CC2OC3(Br)C=CC(C)(O)C2(CC1Br)C3(C)C (stereo not drawn)	> 100	> 100	> 100	> 100	> 100	> 100	> 100	> 100	> 100											
CC(=O)Oc1cc(C)c2c(c1OC(C)=O)CC1(O2)[C@@H](C)CCC2[C@@]3(C)CC[C@H](OC(C)=O)C(C)(C)C3CC[C@]21C (stereo partly drawn)	7.63	3.15	13.3	13	4.49	11.5	14.4	5.26	3.93											
Nc1nc2sc3ccccc3c(=O)n2n1	> 100	> 100	> 100	> 100	> 100	> 100	> 100	> 100	> 100											
CC(=O)N1c2ccccc2C2=CC3C4C(=O)N(c5ccccc5)C(=O)C4C21C1C(=O)N(c2ccccc2)C(=O)C31 (stereo not drawn)	> 100	> 100	> 100	> 100	> 100	> 100	> 100	> 100	> 100											
Cc1noc2cccc(OCc3ccccc3)c12	> 100	> 100	> 100	> 100	> 100	> 100	> 100	> 100	> 100											
O=S(=O)(N/N=C/c1ccc(Cl)c(Cl)c1)c1ccccc1	> 100	39.6	> 100	> 100	> 100	> 100	> 100	> 100	94.2											
Nc1cc(C(=O)O)[nH]c(=O)n1	> 100	> 100	> 100	> 100	> 100	> 100	> 100	> 100	> 100											
COC(c1cccc(C(O)(C(F)(F)F)C(F)(F)F)c1)(C(F)(F)F)C(F)(F)F	29.2	33.5	31	53.9	35.3	35.3	33.9	28.2	34.2											
CCOC(=O)N1C2C=C(C)C(ON2C(=O)c2ccccc2)C2C(C)C(=O)N21 (stereo not drawn)	> 100	> 100	> 100	> 100	> 100	> 100	> 100	> 100	> 100											
N#CC(/C(=N/NC(=O)C(=O)NN)C(=O)Nc1nc([N+](=O)[O-])cs1)c1ccc(Cl)cc1 (stereo not drawn)	> 100	> 100	> 100		> 100	> 100	> 100	> 100	> 100											
Cc1ccccc1C1=[N+]([O-])c2ccccc2C1=O	30.6	29.1	32.4	34.8	34.9	35.4	31	34.6	36.6											
COc1ccc2c(c1)C(=O)N1CCOC1C2C(=O)O (stereo not drawn)	> 100		> 100	> 100	> 100	> 100	> 100	> 100	> 100											
O=C(C=Nc1ccccc1C(=O)[O-])c1cccs1.O=C(C=Nc1ccccc1C(=O)[O-])c1cccs1.[Co+2]	> 100	> 100	> 100	> 100	> 100	> 100	> 100	> 100	> 100											
O=C(Nc1ccc(F)cc1)Nc1ccccc1CNc1nc(Nc2ccc(OCCN3CCCC3)cc2)ncc1Cl	3.15			6.06	13.3	13.1	3.73	2.04	1.49	1.26	1.58	5.27	5.63	1.48	4.28	1.28	0.968	0.742		
O=c1cc(-c2ccccc2)oc2cc(O)c(O)c(O)c12	> 100		31.8	58.8		39.7	> 100	31.9	> 100	9.32	8.25		12.7	23.7	> 100	11.1	9.39	13.9	11.1	
CN(CCCCCl)P(=O)(OCc1ccc([N+](=O)[O-])o1)OCC1OC(n2ccc(N)nc2=O)C(F)(F)C1O (stereo not drawn)		> 41.6	> 100	> 100	> 100	1.53	> 86.5	> 100	> 100	0.0374	> 73.5	35.4	0.0742			0.77	1.1		1.16	7.47
